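Briefly, cells in 96-well plates were exposed to five compound concentrations for 48 h, and endpoints were estimated by linear interpolation. Definition used: TGI = concentration required for complete inhibition of growth.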
Assays:
Test in all cases: NCI tumour cell line growth inhibition, 48 h
KM12 colon = system: KM12 colon
SK-OV-3 ovarian = system: SK-OV-3 ovarian
LOX IMVI melanoma = system: LOX IMVI melanoma
MALME-3M melanoma = system: MALME-3M melanoma
SK-MEL-2 melanoma = system: SK-MEL-2 melanoma
SF-268 CNS = system: SF-268 CNS
DMS 114 small cell lung = system: DMS 114 small cell lung
RPMI-8226 leukemia = system: RPMI-8226 leukemia
NCI-H460 lung = system: NCI-H460 lung
KM20L2 colon = system: KM20L2 colon
COLO 205 colon = system: COLO 205 colon
SK-MEL-5 melanoma = system: SK-MEL-5 melanoma
UACC-62 melanoma = system: UACC-62 melanoma
DLD-1 colon = system: DLD-1 colon
SK-MEL-28 melanoma = system: SK-MEL-28 melanoma
NCI-H226 lung = system: NCI-H226 lung
UO-31 renal = system: UO-31 renal
DMS 273 small cell lung = system: DMS 273 small cell lung
IGROV1 ovarian = system: IGROV1 ovarian
786-0 renal = system: 786-0 renal
OVCAR-8 ovarian = system: OVCAR-8 ovarian
TK-10 renal = system: TK-10 renal
ACHN renal = system: ACHN renal
SF-295 CNS = system: SF-295 CNS
M19-MEL melanoma = system: M19-MEL melanoma
A549 NSCLC = system: A549 NSCLC
HCT-15 colon = system: HCT-15 colon
OVCAR-4 ovarian = system: OVCAR-4 ovarian
SNB-19 CNS = system: SNB-19 CNS
HCC-2998 colon = system: HCC-2998 colon
M14 melanoma = system: M14 melanoma
LXFL 529 NSCLC = system: LXFL 529 NSCLC
HL-60(TB) leukemia = system: HL-60(TB) leukemia
EKVX NSCLC = system: EKVX NSCLC
HOP-62 NSCLC = system: HOP-62 NSCLC
HCT-116 colon = system: HCT-116 colon
HOP-18 NSCLC = system: HOP-18 NSCLC
U251 CNS = system: U251 CNS
OVCAR-3 ovarian = system: OVCAR-3 ovarian
NCI-H522 lung = system: NCI-H522 lung
OVCAR-5 ovarian = system: OVCAR-5 ovarian
RXF-631 renal = system: RXF-631 renal
SW-620 colon = system: SW-620 colon
A498 renal = system: A498 renal
NCI-H23 lung = system: NCI-H23 lung
SNB-75 CNS = system: SNB-75 CNS
K-562 leukemia = system: K-562 leukemia
MOLT-4 leukemia = system: MOLT-4 leukemia
SN12C renal = system: SN12C renal
CCRF-CEM leukemia = system: CCRF-CEM leukemia

Structure (SMILES): NC(N)=NCCCC(N=c1c2ccccc2n(O)c2ccccc12)C(=O)O (stereo not given)
- TGI (KM12 colon): > 100 µM
- TGI (SK-OV-3 ovarian): > 100 µM
- TGI (LOX IMVI melanoma): > 100 µM
- TGI (MALME-3M melanoma): > 100 µM
- TGI (SK-MEL-2 melanoma): > 100 µM
- TGI (SF-268 CNS): > 100 µM
- TGI (DMS 114 small cell lung): > 100 µM
- TGI (RPMI-8226 leukemia): 75.7 µM
- TGI (NCI-H460 lung): > 100 µM
- TGI (KM20L2 colon): > 100 µM
- TGI (COLO 205 colon): > 100 µM
- TGI (SK-MEL-5 melanoma): 66.6 µM
- TGI (UACC-62 melanoma): > 100 µM
- TGI (DLD-1 colon): > 100 µM
- TGI (SK-MEL-28 melanoma): 90.1 µM
- TGI (NCI-H226 lung): > 100 µM
- TGI (UO-31 renal): > 100 µM
- TGI (DMS 273 small cell lung): > 100 µM
- TGI (IGROV1 ovarian): > 100 µM
- TGI (786-0 renal): > 100 µM
- TGI (OVCAR-8 ovarian): > 100 µM
- TGI (TK-10 renal): > 100 µM
- TGI (ACHN renal): > 100 µM
- TGI (SF-295 CNS): > 100 µM
- TGI (M19-MEL melanoma): > 100 µM
- TGI (A549 NSCLC): > 100 µM
- TGI (HCT-15 colon): > 100 µM
- TGI (OVCAR-4 ovarian): > 100 µM
- TGI (SNB-19 CNS): > 100 µM
- TGI (HCC-2998 colon): > 100 µM
- TGI (M14 melanoma): > 100 µM
- TGI (LXFL 529 NSCLC): > 100 µM
- TGI (HL-60(TB) leukemia): 58.5 µM
- TGI (EKVX NSCLC): > 100 µM
- TGI (HOP-62 NSCLC): > 100 µM
- TGI (HCT-116 colon): > 100 µM
- TGI (HOP-18 NSCLC): > 100 µM
- TGI (U251 CNS): > 100 µM
- TGI (OVCAR-3 ovarian): > 100 µM
- TGI (NCI-H522 lung): > 100 µM
- TGI (OVCAR-5 ovarian): > 100 µM
- TGI (RXF-631 renal): > 100 µM
- TGI (SW-620 colon): > 100 µM
- TGI (A498 renal): > 100 µM
- TGI (NCI-H23 lung): > 100 µM
- TGI (SNB-75 CNS): 87.6 µM
- TGI (K-562 leukemia): > 100 µM
- TGI (MOLT-4 leukemia): > 100 µM
- TGI (SN12C renal): > 100 µM
- TGI (CCRF-CEM leukemia): > 100 µM

— PubChem BioAssay (NCI)
